This test has as its target T1, His-TEV-AtPPO1 ΔcTP V002 (SEQ ID NO: 373) (Arabidopsis thaliana, UniProt P55826, L479M/S305L/Y426V).
T1 construct: with cTPs removed; made in house; host or cells: E. coli BL21 (DE3), His GraviTrap, partially purified
T1 sequence (P55826 with tags, fused parts or gaps S305L/Y426V/L479M): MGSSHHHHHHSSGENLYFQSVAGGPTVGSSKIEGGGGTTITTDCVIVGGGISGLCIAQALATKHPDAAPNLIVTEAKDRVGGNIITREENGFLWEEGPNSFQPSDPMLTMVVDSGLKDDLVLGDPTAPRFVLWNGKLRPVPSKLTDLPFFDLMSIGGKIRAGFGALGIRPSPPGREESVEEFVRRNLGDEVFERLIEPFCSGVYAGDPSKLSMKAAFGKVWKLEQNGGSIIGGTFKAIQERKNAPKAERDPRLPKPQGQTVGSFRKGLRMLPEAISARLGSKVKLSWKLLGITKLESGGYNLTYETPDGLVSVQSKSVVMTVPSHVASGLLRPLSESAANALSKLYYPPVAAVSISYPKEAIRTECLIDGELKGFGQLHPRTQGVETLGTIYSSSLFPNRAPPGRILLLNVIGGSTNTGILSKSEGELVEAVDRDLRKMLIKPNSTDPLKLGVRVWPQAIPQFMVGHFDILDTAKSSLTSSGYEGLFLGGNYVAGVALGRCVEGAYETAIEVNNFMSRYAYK
The experiment in a line: activity rate of PPO variant in in vitro assay. It is filed as biochemical. The following applies: role: substrate; 1 uM protoporphyrinogen IX; no inhibitor. An excerpt: A pET24 plasmid containing a DNA sequence encoding variants of AtPPO1 derived from Arabidopsis thaliana with cTPs removed and both a 6×His tag and TEV protease cleavage tag added at the N-terminus, codon-optimised for expression in E. coli, and under control of a T7 promoter, was synthesised by Twist Bioscience. The following variants were synthesised: WT AtPPO1 (SEQ ID NO: 370), AtPPO1 L479M (SEQ ID NO: 371), AtPPO1 L479N (SEQ ID NO: 372), AtPPO1 S305L Y426V (SEQ ID NO: 374) and AtPPO1 S305L Y426V L479M (SEQ ID NO: 373). This plasmid was expressed in E. coli BL21 (DE3) with 50 μg/mL kanamycin selection. 10 mL of overnight cultures grown at 37° C. were used to inoculate 1 L AIM (AIM-Terrific Broth Base including Trace elements, Formedium) in 2 L shake flasks. Cultures were grown at 37° C., 200 rpm for 3 hours and then overnight at 26° C. Cells were harvested centrifugation. 5-15 g of cell pellet was lysed in and resuspended in ratio of 1:1.5 in lysis buffer (20 mM Tris pH8, 500 mM sodium chloride, 10% glycerol, 1× complete Protease EDTA-free Inhibitor Tablet (Roche), 10 mM imidazole). The resuspension was sonicated at 75% using 10 cycles of 30 seconds, 40 seconds off. After sonication Triton X-100 was added to the lysates at a final concentration of 0.5%. The lysates were centrifuged at 20,000 rpm for 25 min at 4° C. Cleared lysates were loaded on His GraviTrap (Cytiva) columns, washed with 20 mL of lysis buffer and eluted in elution buffer (20 mM Tris pH8, 500 mM sodium chloride, 10% glycerol, 200 mM imidazole, 0.03% (v/v) Triton X-100). The eluate was desalted on a PD10 column and 2.5-3.2 mL was collected. Protein concentration was measured and calculated using the absorbance at 280 nm. Extracts were diluted 1 in 4 and 10 uL was analysed by SDS PAGE.
Partially purified Protoporphyrinogen Oxidase enzymes were assayed for activity using fluorescence adapted from the method of Shepherd & Dailey (Anal Biochem. 2005 344(1) 115-121). The assay was performed in black 384 well plates with a clear bottom and the total volume of the reaction mixture was 91 ul. The final assay mixture contained 100 mM K2HPO4 pH7.2, 1 mM Na2EDTA, 5 mM DTT, 20% glycerol (v/v), 0.05% Tween 20 (v/v), 1.1% DMSO (v/v), 1 uM protoporphyrinogen IX and 1.5 nM enzyme. Compounds were dissolved in DMSO at 1 mM and a 4-fold serial dilution carried out to give 8 rates. 1 ul was added to the assay mixture. This gave final compound concentrations of 11, 2.7, 0.69, 0.17, 0.04, 0.01, 0.002, 0.0007 uM. Enzyme and inhibitor were preincubated for 5 minutes prior to starting the reaction with the addition of the substrate. […] IC50s were calculated using GraphPad Prism 7.05 nonlinear regression (Table 6). Each compound was tested in duplicate.

Turning to `C=Cc1c2[nH]c(c1C)Cc1[nH]c(c(CCC(=O)O)c1C)Cc1[nH]c(c(C)c1CCC(=O)O)Cc1[nH]c(c(C)c1C=C)C2` [protoporphyrinogen IX], the Rate is recorded as 7.6 rfu second^−1 pmole^−1.

These data come from US20260297542A1, “HERBICIDE RESISTANT PLANTS” (SYNGENTA CROP PROTECTION AG, priority 2023, published 2026).
